Measured values from ChEMBL document CHEMBL3885861, “Open TG-GATES”.

Species on record: Rattus norvegicus
Assay: Open TG-GATES - Regimen: Daily Repeat
Assay type: toxicity, organism-based, Sprague-Dawley
Design: regimen Daily Repeat, gender Male, age 6 weeks
Details: in vivo, po, route gavage; for KIDNEY_L / KIDNEY_R / KIDNEY_TOTAL: tissue Kidney; for ALP / ALT / AST / BUN / CRE / Ca / DBIL / IP / K / Na / PL / RALB / TBIL / TC / TG / TP / gamma-GTP / LDH: tissue Plasma; for LIVER: tissue Liver
[1] = 120 mg/kg, 72 h, tissue Blood, dose level Middle, time 3 day
[2] = 120 mg/kg, 72 h, dose level Middle, time 3 day
[3] = 120 mg/kg, […], dose level Middle, time 7 day
[4] = 120 mg/kg, […], dose level Middle, time 14 day
[5] = 120 mg/kg, […], dose level Middle, time 28 day
[6] = 120 mg/kg, […], tissue Blood, dose level Middle, time 7 day
[7] = 120 mg/kg, […], tissue Blood, dose level Middle, time 14 day
[8] = 120 mg/kg, […], tissue Blood, dose level Middle, time 28 day
[9] = 400 mg/kg, 72 h, tissue Blood, dose level High, time 3 day

## CCC(C)(C)C(=O)O[C@H]1C[C@@H](C)C=C2C=C[C@H](C)[C@H](CC[C@@H]3C[C@@H](O)CC(=O)O3)[C@H]21 [SIMVASTATIN]
[1]
  Ht: 41%
  Lym: 80.2%
  MCHC: 33.2%
  Mono: 8.4%
  Neu: 10.2%
  Plat: 119.9 x10_4/uL
  RBC: 644.2 x10_4/ul
  Ret: 5.5%
  WBC: 81 x10_2/uL
[2]
  KIDNEY_L: 1 g
  KIDNEY_R: 1 g
  KIDNEY_TOTAL: 2 g
  ALP: 885.4 IU/L
  ALT: 42 IU/L
  AST: 62.2 IU/L
  BUN: 16.4 mg/dL
  CRE: 0.6 mg/dL
  Ca: 10.8 mg/dL
  DBIL: 0.012 mg/dL
  IP: 7.3 mg/dL
  K: 4.4 meq/L
  Na: 139.6 meq/L
  PL: 131.2 mg/dL
  RALB: 3.9 g/dL
  TBIL: 0.3 mg/dL
  TC: 81.6 mg/dL
  TG: 48.2 mg/dL
  TP: 5.6 g/dL
  gamma-GTP: 1.4 IU/L
[3]
  TERMINAL_BW: 245.2 g
  KIDNEY_L: 1.1 g
  KIDNEY_R: 1.1 g
  KIDNEY_TOTAL: 2.2 g
  LIVER: 13.1 g
  ALP: 848 IU/L
  ALT: 38.2 IU/L
  AST: 67.4 IU/L
  BUN: 21.4 mg/dL
  CRE: 0.6 mg/dL
  DBIL: 0.012 mg/dL
  IP: 7.1 mg/dL
  K: 4.8 meq/L
  LDH: 124.8 IU/L
  Na: 141.2 meq/L
  PL: 140.8 mg/dL
  RALB: 3.9 g/dL
  TBIL: 0.3 mg/dL
  TC: 74.6 mg/dL
  TG: 78.8 mg/dL
  TP: 5.8 g/dL
  gamma-GTP: 0.8 IU/L
[4]
  TERMINAL_BW: 292.4 g
  KIDNEY_L: 1.2 g
  KIDNEY_R: 1.2 g
  KIDNEY_TOTAL: 2.4 g
  LIVER: 14.5 g
  ALP: 763.4 IU/L
  ALT: 37.6 IU/L
  AST: 67 IU/L
  BUN: 20.6 mg/dL
  CRE: 0.6 mg/dL
  Ca: 11 mg/dL
  DBIL: 0.01 mg/dL
  IP: 7.2 mg/dL
  K: 4.3 meq/L
  LDH: 110.6 IU/L
  Na: 140.4 meq/L
  PL: 150.4 mg/dL
  RALB: 4 g/dL
  TBIL: 0.4 mg/dL
  TC: 76.2 mg/dL
  TG: 119.6 mg/dL
  TP: 5.9 g/dL
  gamma-GTP: 1.2 IU/L
[5]
  TERMINAL_BW: 375.8 g
  KIDNEY_L: 1.4 g
  KIDNEY_R: 1.4 g
  KIDNEY_TOTAL: 2.7 g
  LIVER: 17.7 g
  ALP: 716 IU/L
  ALT: 36.6 IU/L
  AST: 59.4 IU/L
  BUN: 19.8 mg/dL
  CRE: 0.7 mg/dL
  Ca: 10.9 mg/dL
  DBIL: 0.016 mg/dL
  IP: 6.4 mg/dL
  K: 4.2 meq/L
  LDH: 107.8 IU/L
  Na: 142.6 meq/L
  PL: 139.6 mg/dL
  RALB: 4 g/dL
  TBIL: 0.3 mg/dL
  TC: 71.4 mg/dL
  TG: 128.2 mg/dL
  TP: 6.2 g/dL
  gamma-GTP: 2.2 IU/L
[6]
  Bas: 0%
  Eos: 1%
  Fbg: 222.8 mg/dL
  Hb: 13.3 g/dL
  Ht: 40%
  Lym: 83.8%
  MCHC: 33.1%
  Mono: 7.4%
  Neu: 8.4%
  PT: 11 s
  Plat: 123.4 x10_4/uL
  RBC: 630.6 x10_4/ul
  Ret: 3.3%
  WBC: 106.6 x10_2/uL
[7]
  Bas: 0%
  Eos: 0.8%
  Fbg: 223.6 mg/dL
  Hb: 14.2 g/dL
  Ht: 42.5%
  Lym: 80%
  MCHC: 33.3%
  Mono: 5.2%
  Neu: 14.4%
  Plat: 121.2 x10_4/uL
  RBC: 698 x10_4/ul
  Ret: 6%
[8]
  Bas: 0%
  Eos: 1%
  Fbg: 238.8 mg/dL
  Hb: 15 g/dL
  Ht: 45.4%
  Lym: 83.4%
  MCHC: 33.1%
  MCV: 58.3 fL
  Mono: 5.2%
  PT: 11.8 s
  Plat: 116.8 x10_4/uL
  RBC: 778.6 x10_4/ul
  Ret: 2.4%
  WBC: 114.5 x10_2/uL
400 mg/kg, 72 h, dose level High, time 3 day
  TERMINAL_BW: 181.9 g
[9]
  Bas: 0%
  Eos: 1%
  Fbg: 202.2 mg/dL
  Hb: 15.1 g/dL
  Ht: 45.5%
